Test results taken from ChEMBL document CHEMBL2062405, “Alkaloids from the root of Isatis indigotica” (J Nat Prod, 2012).
Activity calls are given as the source filed them. The rule behind the calls is not given here.

Experiments:
Coxsackievirus B3 = experiment: Antiviral activity against Coxsackievirus B3 assessed as inhibition of viral replication; format: functional, organism-based; conditions: Enterovirus B
[1] = Hepatoprotective activity in rat WB-F344 cells assessed as inhibition of DL-Galactosamine-induced toxicity at 10 uM incubated for 1 hr prior to DL-Galactosamine-challenge measured after 24 hrs by MTT assay; format: functional
[2] = test system: Human immunodeficiency virus 1; experiment: Antiviral activity against HIV1 infected in 293T cells cotransfected with VSV-G at 10 uM after 48 hrs by ELISA; format: functional, organism-based
Human alphaherpesvirus 1 = experiment: Antiviral activity against Herpes simplex virus 1 at 10 uM; format: functional, organism-based
A549 = experiment: Cytotoxicity against human A549 cells at 10 uM after 96 hrs by MTT assay; format: functional, cell-based
BGC-823 = experiment: Cytotoxicity against human BGC823 cells at 10 uM after 96 hrs by MTT assay; format: functional, cell-based
MCF7 = experiment: Cytotoxicity against human MCF7 cells at 10 uM after 96 hrs by MTT assay; format: functional, cell-based
Bel-7402 = experiment: Cytotoxicity against human Bel7402 cells at 10 uM after 96 hrs by MTT assay; format: functional, cell-based
KETR3 = experiment: Cytotoxicity against human Ketr3 cells at 10 uM after 96 hrs by MTT assay; format: functional, cell-based
HCT-8 = experiment: Cytotoxicity against human HCT8 cells at 10 uM after 96 hrs by MTT assay; format: functional, cell-based
Influenza A virus = experiment: Antiviral activity against influenza A virus A/Hanfang/359/95 (H3N2) assessed as inhibition of virus-induced cytopathic effect in cell-based assay; format: functional, organism-based

Compound	IC50 (Coxsackievirus B3)	inhibition at 10 µM [1]	Activity [2]	Activity (Human alphaherpesvirus 1)	Activity (A549)	Activity (BGC-823)	Activity (MCF7)	Activity (Bel-7402)	Activity (KETR3)	Activity (HCT-8)	IC50 (Influenza A virus)
Cc1cc(CCCOc2c(C)cc(-c3noc(C(F)(F)F)n3)cc2C)on1 [PLECONARIL]	0.41 µM										
COc1cccc2c1[C@@](O)(CC#N)C(=O)N2		47%	inactive	inactive	inactive	inactive	inactive	inactive	inactive	inactive	
COc1cccc2[nH]cc(CC#N)c12 [ARVELEXIN]			inactive	inactive	inactive	inactive	inactive	inactive	inactive	inactive	3.7 µM
COc1cccc2[nH]cc(C(C#N)c3ccc(OC)c4c(CC#N)c[nH]c34)c12 (single isomer, unassigned)			inactive	inactive	inactive	inactive	inactive	inactive	inactive	inactive	3.7 µM
NC(=O)CC1C(=O)Nc2ccccc21 (racemic)	6.87 µM		inactive	inactive	inactive	inactive	inactive	inactive	inactive	inactive	
O=C1/C(=C/c2c[nH]c3ccccc23)Nc2ccccc21		44%	inactive	inactive	inactive	inactive	inactive	inactive	inactive	inactive	
COc1ccc(C(C#N)c2c[nH]c3ccccc23)c2[nH]cc(CC#N)c12 (single isomer, unassigned)			inactive	inactive	inactive	inactive	inactive	inactive	inactive	inactive	3.7 µM
N#CC[C@H]1C(=O)Nc2cccc(O)c21		46%	inactive	inactive	inactive	inactive	inactive	inactive	inactive	inactive	
CCOC(=O)C1=C[C@@H](OC(CC)CC)[C@H](NC(C)=O)[C@@H](N)C1 [OSELTAMIVIR]											1.23 µM
NC(=O)[C@@H]1CC(=O)Nc2ccccc21		45%	inactive	inactive	inactive	inactive	inactive	inactive	inactive	inactive	
COc1ccc([C@@H](C)c2ccc(O)cc2)c2[nH]cc(CC#N)c12			inactive	inactive	inactive	inactive	inactive	inactive	inactive	inactive	3.7 µM
